# Results published in patent publication US11235976B2, “Nanocarbon-iron composite system as well as composition, preparation method and use thereof” (Chongqing Lummy Pharmaceutical Co., LTD, priority 2017, dated 2022).
# How the values were obtained:
# [1] = test system: HCT116 colon cancer cells; test: Cell experiment, cell survival rate; type: cell-based; conditions: 48 h
# Experimental: (§1) Cells growing in a log phase are collected, the concentration of the cell suspension is adjusted, 100 μL of cell suspension is added to each well and the cells are plated (edge wells are filled with sterile PBS) at a density of 1×10^3-10^4 cells/well. The cells are incubated for 24 hours at 37° C. under the condition of 5% CO2, a nanocarbon-iron solution having a concentration gradient (nanocarbon content: 125, 62.5, 15.63 and 3.91 μg/mL; and ferric ion content: 13.65, 6.83, 1.71 and 0.43 μg/mL) is added, and three sub-wells are set. Then the cells are incubated for 48 hours at 37° C. under the condition of 5% CO2. 10 μL of CCK8 solution is added to each well and then the cells are continuously incubated for 2 hours. The absorbance of each well is measured at OD=450 nm with the microplate reader. In addition, a negative control group, nanocarbon control groups having the same concentration and iron preparation control groups having the same concentration are set.
# as §1, with “and 1” for “100”, “of a 6-well plate” for “and the cells are plated (edge wells are filled with sterile PBS)”, “3×10^4” for “1×10^3-10^4”, “1.71,” for “1.71 and”, “The” for “10 μL of CCK8 solution is added to each well and then the”, “trypsinized and counted.” for “continuously incubated for 2 hours. The absorbance of each well is measured at OD=450 nm with the microplate reader.”
# [2] = test system: SGC-7901 stomach cancer cells; test: Cell experiment, cell survival rate; type: cell-based; conditions: 48 h
# Experimental: as §1
# as §1, with “and 1” for “100”, “of a 6-well plate” for “and the cells are plated (edge wells are filled with sterile PBS)”, “3×10^4” for “1×10^3-10^4”, “1.71,” for “1.71 and”, “The” for “10 μL of CCK8 solution is added to each well and then the”, “trypsinized and counted.” for “continuously incubated for 2 hours. The absorbance of each well is measured at OD=450 nm with the microplate reader.”
# [3] = test system: TPC-1 thyroid cancer cells; test: Cell experiment, cell survival rate; type: cell-based; conditions: 48 h
# Experimental: as §1
# as §1, with “and 1” for “100”, “of a 6-well plate” for “and the cells are plated (edge wells are filled with sterile PBS)”, “3×10^4” for “1×10^3-10^4”, “1.71,” for “1.71 and”, “The” for “10 μL of CCK8 solution is added to each well and then the”, “trypsinized and counted.” for “continuously incubated for 2 hours. The absorbance of each well is measured at OD=450 nm with the microplate reader.”
# A549 lung cancer cells = test: Cell experiment, cell survival rate; type: cell-based; conditions: 48 h
# Experimental: as §1
# as §1, with “and 1” for “100”, “of a 6-well plate” for “and the cells are plated (edge wells are filled with sterile PBS)”, “3×10^4” for “1×10^3-10^4”, “1.71,” for “1.71 and”, “The” for “10 μL of CCK8 solution is added to each well and then the”, “trypsinized and counted.” for “continuously incubated for 2 hours. The absorbance of each well is measured at OD=450 nm with the microplate reader.”
# [4] = test system: SMMC7721 liver cancer cells; test: Cell experiment, cell survival rate; type: cell-based; conditions: SMMC-7721, 48 h
# Experimental: as §1
# as §1, with “and 1” for “100”, “of a 6-well plate” for “and the cells are plated (edge wells are filled with sterile PBS)”, “3×10^4” for “1×10^3-10^4”, “1.71,” for “1.71 and”, “The” for “10 μL of CCK8 solution is added to each well and then the”, “trypsinized and counted.” for “continuously incubated for 2 hours. The absorbance of each well is measured at OD=450 nm with the microplate reader.”
# [5] = test system: Hela cervical cancer cells; test: Cell experiment, cell survival rate; type: cell-based; conditions: 48 h
# Experimental: as §1
# as §1, with “and 1” for “100”, “of a 6-well plate” for “and the cells are plated (edge wells are filled with sterile PBS)”, “3×10^4” for “1×10^3-10^4”, “1.71,” for “1.71 and”, “The” for “10 μL of CCK8 solution is added to each well and then the”, “trypsinized and counted.” for “continuously incubated for 2 hours. The absorbance of each well is measured at OD=450 nm with the microplate reader.”
# [6] = test system: MDA-MB-231 breast cancer cells; test: Cell experiment, cell survival rate; type: cell-based; conditions: 48 h
# Experimental: as §1
# as §1, with “and 1” for “100”, “of a 6-well plate” for “and the cells are plated (edge wells are filled with sterile PBS)”, “3×10^4” for “1×10^3-10^4”, “1.71,” for “1.71 and”, “The” for “10 μL of CCK8 solution is added to each well and then the”, “trypsinized and counted.” for “continuously incubated for 2 hours. The absorbance of each well is measured at OD=450 nm with the microplate reader.”
# [7] = test system: SKOV3 ovarian cancer cells; test: Cell experiment, cell survival rate; type: cell-based; conditions: 48 h
# Experimental: as §1
# as §1, with “and 1” for “100”, “of a 6-well plate” for “and the cells are plated (edge wells are filled with sterile PBS)”, “3×10^4” for “1×10^3-10^4”, “1.71,” for “1.71 and”, “The” for “10 μL of CCK8 solution is added to each well and then the”, “trypsinized and counted.” for “continuously incubated for 2 hours. The absorbance of each well is measured at OD=450 nm with the microplate reader.”
# [8] = test system: murine liver cancer H22 cells; test: Cell experiment, cell survival rate; type: cell-based; conditions: 48 h
# Experimental: as §1
# as §1, with “and 1” for “100”, “of a 6-well plate” for “and the cells are plated (edge wells are filled with sterile PBS)”, “3×10^4” for “1×10^3-10^4”, “1.71,” for “1.71 and”, “The” for “10 μL of CCK8 solution is added to each well and then the”, “trypsinized and counted.” for “continuously incubated for 2 hours. The absorbance of each well is measured at OD=450 nm with the microplate reader.”
# [9] = test system: TPC-1 metastatic lymph nodes; test: Lymph node metastasis inhibition experiment; type: in vivo, nude mouse; conditions: popliteal lymph nodes
# Experimental: (§2) Cells growing in a log phase are collected, the concentration of the cell suspension is adjusted to 3×10^7 cells/mL, the cell suspension is inoculated subcutaneously into the left hind foot pads of each nude mouse at the inoculation volume of 0.05 mL (about 1.5×10^6 cells) and thus a lymph node metastasis mouse model is obtained. The mice are treated when the diameter of the tumor reaches 6-8 mm and there is no ulcer and necrosis. The mice are randomly divided into four groups (10 mice per group): a negative control group (0.9% sodium chloride injection), a nanocarbon control group, an iron preparation control group and a nanocarbon-iron suspension experimental group. 10 days after inoculation, the mice are killed, and popliteal lymph nodes are collected, weighed and fixed for pathological examination.
# [10] = test system: SKOV3 metastatic lymph nodes; test: Lymph node metastasis inhibition experiment; type: in vivo, nude mouse; conditions: popliteal lymph nodes
# Experimental: as §2
# [11] = test system: MDA-MB-231 metastatic lymph nodes; test: Lymph node metastasis inhibition experiment; type: in vivo, nude mouse; conditions: popliteal lymph nodes
# Experimental: as §2
# [12] = test system: SMMC-7721 metastatic lymph nodes; test: Lymph node metastasis inhibition experiment; type: in vivo, nude mouse; conditions: popliteal lymph nodes
# Experimental: as §2
# [13] = test system: Hela metastatic lymph nodes; test: Lymph node metastasis inhibition experiment; type: in vivo, nude mouse; conditions: popliteal lymph nodes
# Experimental: as §2
# [14] = test system: HCT116 metastatic lymph nodes; test: Lymph node metastasis inhibition experiment; type: in vivo, nude mouse; conditions: popliteal lymph nodes
# Experimental: as §2
# [15] = test system: A549 metastatic lymph nodes; test: Lymph node metastasis inhibition experiment; type: in vivo, nude mouse; conditions: popliteal lymph nodes
# Experimental: as §2
# [16] = test system: SGC-7901 metastatic lymph nodes; test: Lymph node metastasis inhibition experiment; type: in vivo, nude mouse; conditions: popliteal lymph nodes
# Experimental: as §2
# [17] = test system: subcutaneous transplantation tumors of 9 types of cancer cells; test: Tumor growth inhibition experiments, subcutaneous transplantation tumors; type: in vivo, mice; conditions: FIGS. 4-39
# Experimental: Cells growing in a log phase are collected, the concentration of the cell suspension is adjusted to 3×10^7 cells/mL, and the cell suspension is inoculated subcutaneously into the right upper extremities of nude mice at the inoculation dosage of 0.1 mL (about 3×10^6 cells) per mouse. When the average tumor volume of the inoculated mice reaches 100 mm^3, the tumor-bearing mice are randomly divided into the following groups (8 nude mice per group): a negative control group (0.9% sodium chloride injection), a nanocarbon control group, an iron preparation control group, a nanocarbon-iron suspension experimental group, and a cis-platinum control group (intraperitoneal injection at the dosage of 5 mg/kg). The above various drugs are injected into the tumors. The tumor volume changes are recorded, and the formula for calculating the volume is Volume=(length×the square of width)/2.
# Milky white and thick ascites is extracted from the H22 tumor-bearing mice, the concentration of the cell suspension is adjusted to be 3×10^7 cells/mL, 0.1 mL of cell suspension (about 3×10^6 cells) is inoculated subcutaneously into the right upper extremity of each of Kunming mice. When the average tumor volume of the inoculated mice reaches 100 mm^3, the tumor-bearing mice are randomly divided into the following groups (8 mice per group): a negative control group (0.9% sodium chloride injection), a nanocarbon control group, an iron preparation control group, a nanocarbon-iron suspension experimental group, and a cis-platinum control group (intraperitoneal injection at the dosage of 5 mg/kg). The above various drugs are injected into the tumors. The tumor volume changes are recorded, and the formula for calculating the volume is Volume=(length×the square of width)/2.
# [18] = test system: lymph node metastasis of 9 types of tumor cells; test: Lymph node metastasis inhibition experiment, summary; type: in vivo, mice
# Experimental: as §2
# (§3) Milky white and thick ascites is extracted from the H22 tumor-bearing mice, the concentration is adjusted to be 3×10^7 cells/mL, 0.05 mL of cell suspension (about 1.5×10^6 cells) is inoculated subcutaneously into the left hind foot pads of each Kunming mouse, and thus a lymph node metastasis mouse model is obtained. The mice are treated when the diameter of the tumor reaches 6-8 mm and there is no ulcer and necrosis. The mice are randomly divided into four groups (10 mice per group): a negative control group (0.9% sodium chloride injection), a nanocarbon control group, an iron preparation control group and a nanocarbon-iron suspension experimental group. 10 days after inoculation, the mice are killed, and popliteal lymph nodes are collected, weighed and fixed for pathological examination.
# [19] = test system: H22 metastatic lymph nodes; test: Lymph node metastasis inhibition experiment; type: in vivo, Kunming mouse; conditions: popliteal lymph nodes
# Experimental: as §3
# [20] = iron preparation alone 0.43 μg/mL
# [21] = iron preparation alone 1.71 μg/mL
# [22] = iron preparation alone 6.83 μg/mL
# [23] = iron preparation alone 13.65 μg/mL
substance,measurement,setting,value
ferrous gluconate,Cell Survival Rate,[1]; [20],100%
same,Cell Survival Rate,[1]; [21],100%
same,Cell Survival Rate,[1]; [22],100%
same,Cell Survival Rate,[1]; [23],98.67%
same,Cell Survival Rate,[2]; [20],100%
same,Cell Survival Rate,[2]; [21],100%
same,Cell Survival Rate,[2]; [22],99.48%
same,Cell Survival Rate,[2]; [23],97.43%
same,Cell Survival Rate,[3]; [20],100%
same,Cell Survival Rate,[3]; [21],100%
same,Cell Survival Rate,[3]; [22],100%
same,Cell Survival Rate,[3]; [23],98.34%
same,Cell Survival Rate,A549 lung cancer cells; [20],100%
same,Cell Survival Rate,A549 lung cancer cells; [21],100%
same,Cell Survival Rate,A549 lung cancer cells; [22],100%
same,Cell Survival Rate,A549 lung cancer cells; [23],97.31%
same,Cell Survival Rate,[4]; [20],100%
same,Cell Survival Rate,[4]; [21],96.12%
same,Cell Survival Rate,[4]; [22],97.68%
same,Cell Survival Rate,[4]; [23],100%
same,Cell Survival Rate,[5]; [20],100%
same,Cell Survival Rate,[5]; [21],100%
same,Cell Survival Rate,[5]; [22],100%
same,Cell Survival Rate,[5]; [23],97.86%
same,Cell Survival Rate,[6]; [20],100%
same,Cell Survival Rate,[6]; [21],100%
same,Cell Survival Rate,[6]; [22],100%
same,Cell Survival Rate,[6]; [23],100%
same,Cell Survival Rate,[7]; [20],100%
same,Cell Survival Rate,[7]; [21],100%
same,Cell Survival Rate,[7]; [22],96.47%
same,Cell Survival Rate,[7]; [23],97.11%
same,Cell Survival Rate,[8]; [20],100%
same,Cell Survival Rate,[8]; [21],100%
same,Cell Survival Rate,[8]; [22],100%
same,Cell Survival Rate,[8]; [23],96.14%
same,Weight of Lymph Node,[9],40.16 ± 9.03 mg
same,Weight of Lymph Node,[10],33.57 ± 5.94 mg
same,Weight of Lymph Node,[11],40.19 ± 20.69 mg
same,Weight of Lymph Node,[12],58.97 ± 19.63 mg
same,Weight of Lymph Node,[13],32.14 ± 21.36 mg
same,Weight of Lymph Node,[14],55.18 ± 20.12 mg
same,Weight of Lymph Node,[15],47.58 ± 20.34 mg
same,Weight of Lymph Node,[16],52.14 ± 17.43 mg
same,inhibition effect on growth of 9 types of tumors,[17],do not have an inhibition effect
same,inhibition effect on the metastatic lymph nodes,[18],do not have an inhibition effect
same,Weight of Lymph Node,[19],57.19 ± 15.92 mg
